# Experimental data reported in the supplement of paper PMC10307832.
# Legend:
# Assay in all cases: relative viability (nuclei count vs DMSO), 5 days (fraction); higher = more cells survive
# [1] = compound: C1=CC2=C(C=CC(=C2)C=C3C(=O)NC(=NCC4=CC=CS4)S3)N=C1 [RO-3306]
# How it was run: (§1)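 Vehicle-anchored 1536-well plates of lung cancer cell lines, held overnight at 37 °C, were pinned with five library-drug doses (not always all listed) spaced by √10. No medium change followed over the next 5 days, after which the cells were fixed, permeabilised and Hoechst-stained together and imaged at 4×. Nuclei were counted with MetaXpress, and viability is treated-well nuclei over vehicle-well nuclei, taken as a median across plates. Plates passed with control CV below 25% and at least one doubling.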
# [2] = compound: COc1cc2c(Oc3ccc(NC(=O)C4(C(=O)Nc5ccc(F)cc5)CC4)cc3F)ccnc2cc1OCCCN1CCOCC1 [Foretinib] (anchor plate); conditions: 0.25 µM
# How it was run: as §1
# [3] = compound: O=S(=O)(c1ccccc1)N(CC(F)(F)F)c1ccc(C(O)(C(F)(F)F)C(F)(F)F)cc1
# How it was run: as §1
# [4] = compound: C1=CC2=C(C=CC(=C2)C=C3C(=O)NC(=NCC4=CC=CS4)S3)N=C1 [RO-3306] + CC(C)C[C@H](NC(=O)[C@H](Cc1ccccc1)NC(=O)c1cnccn1)B(O)O [Bortezomib] (partner 0.002 µM)
# How it was run: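 Lung cancer cell lines were seeded in 1536-well plates and dosed by pin tool the next day, with either a single drug or a fixed anchor-drug dose combined with five library-drug doses (not always all listed) spaced in √10 steps. Five days later, one step fixed the cells and stained their nuclei (final 0.05% Triton X-100, 1% formaldehyde, 1 ug/ml Hoechst), and nuclei were counted on 4× images. Relative viability is the nuclei count in treated wells divided by the count in vehicle wells, and each value is the median of duplicate plates.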
Cell Line,relative viability ([1]; 0.01 µM),relative viability ([1]; 0.03162 µM),relative viability ([1]; 0.1 µM),relative viability ([1]; 0.3162 µM),relative viability ([1]; 1 µM),relative viability [2],relative viability ([3]; 0.8 µM),relative viability ([3]; 2.53 µM),relative viability ([3]; 8 µM),relative viability ([4]; first compound 0.01 µM),relative viability ([4]; first compound 0.03162 µM),relative viability ([4]; first compound 0.1 µM),relative viability ([4]; first compound 0.3162 µM),relative viability ([4]; first compound 1 µM)
NCI-H520,1.05,0.834,1.01,1.04,0.957,0.745,1.1,0.963,0.982,0.802,0.369,0.5,0.582,0.435
NCI-H1993,0.808,0.719,0.893,0.849,0.941,0.782,0.987,0.831,0.711,,1.11,1.02,0.887,0.777
NCI-H2126,1.01,0.916,0.988,1.03,0.938,1.2,1.1,1.01,1.02,1.14,1.18,1.12,1.05,1
NCI-H441,1.09,0.795,1.11,1.13,1.04,0.994,1.12,0.896,0.941,0.771,0.4,0.647,0.449,0.31
SW 1573,1.02,0.781,0.945,1.05,0.979,0.879,1.17,1.01,0.884,1.22,,0.924,0.972,0.894
NCI-H322M,0.86,0.908,0.854,0.954,1.01,1.01,1.08,0.966,0.866,1.17,1.12,1.19,1.32,1.22
ChaGo-K-1,1.03,0.933,1.01,1.04,0.699,0.921,1.14,0.998,1.06,1.01,0.935,0.656,0.756,0.673
EKVX,1,0.888,1,1.03,0.915,0.886,0.93,0.893,0.836,1.23,0.923,1.06,1.12,0.989
NCI-H1355,1.12,0.907,1.01,1.01,0.914,0.973,1.05,0.918,0.884,1.5,1.15,1.17,1.18,1.2
CAL-12T,1.01,0.884,0.906,0.977,1.07,1.13,0.88,0.804,0.811,0.956,,,0.992,1.09
